Experimental data as given in the NIST ThermoML archive (doi:10.1021/acs.jced.8b00132).
Where “and” joins values, the source holds several entries; their conditions need not be identical. Equal entries are not always repeated. Numbers after ± are expanded uncertainties.

## O=C(C(F)(F)C(F)(F)F)C(F)(C(F)(F)F)C(F)(F)F [dodecafluoro-2-methylpentan-3-one]
333.01 K, 108 kPa, Liquid, transient hot wire
  thermal conductivity: 0.05128 ± 0.0011 W/m/K and 0.05126 ± 0.0011 W/m/K
333.21 K, 69192 kPa, Liquid, transient hot wire
  thermal conductivity: 0.07561 ± 0.0015 W/m/K
333.22 K, 69183 kPa, Liquid, transient hot wire
  thermal conductivity: 0.07544 ± 0.0015 W/m/K
333.25 K, 28069 kPa, Liquid, transient hot wire
  thermal conductivity: 0.06356 ± 0.0013 W/m/K
333.26 K, 28068 kPa, Liquid, transient hot wire
  thermal conductivity: 0.06353 ± 0.0013 W/m/K
333.28 K, 57706 kPa, Liquid, transient hot wire
  thermal conductivity: 0.07259 ± 0.0015 W/m/K
333.29 K, 57707 kPa, Liquid, transient hot wire
  thermal conductivity: 0.07259 ± 0.0015 W/m/K
333.34 K, 3947 kPa, Liquid, transient hot wire
  thermal conductivity: 0.05333 ± 0.0011 W/m/K
333.35 K, 3945 kPa, Liquid, transient hot wire
  thermal conductivity: 0.0533 ± 0.0011 W/m/K
333.35 K, 20435 kPa, Liquid, transient hot wire
  thermal conductivity: 0.06088 ± 0.0013 W/m/K
333.36 K, 20438 kPa, Liquid, transient hot wire
  thermal conductivity: 0.06085 ± 0.0013 W/m/K
333.37 K, 45549 kPa, Liquid, transient hot wire
  thermal conductivity: 0.06924 ± 0.0014 W/m/K
333.39 K, 45558 kPa, Liquid, transient hot wire
  thermal conductivity: 0.06943 ± 0.0014 W/m/K
333.46 K, 14103 kPa, Liquid, transient hot wire
  thermal conductivity: 0.05826 ± 0.0012 W/m/K
333.47 K, 14107 kPa, Liquid, transient hot wire
  thermal conductivity: 0.05827 ± 0.0012 W/m/K
333.47 K, 36549 kPa, Liquid, transient hot wire
  thermal conductivity: 0.06656 ± 0.0014 W/m/K
333.48 K, 36550 kPa, Liquid, transient hot wire
  thermal conductivity: 0.0665 ± 0.0014 W/m/K
333.58 K, 8568 kPa, Liquid, transient hot wire
  thermal conductivity: 0.0556 ± 0.0011 W/m/K
333.58 K, 8574 kPa, Liquid, transient hot wire
  thermal conductivity: 0.05562 ± 0.0011 W/m/K
333.67 K, 231 kPa, Liquid, transient hot wire
  thermal conductivity: 0.05113 ± 0.0011 W/m/K
333.67 K, 232 kPa, Liquid, transient hot wire
  thermal conductivity: 0.05114 ± 0.0011 W/m/K
333.7 K, 108 kPa, Liquid, transient hot wire
  thermal conductivity: 0.05109 ± 0.0011 W/m/K
333.71 K, 108 kPa, Liquid, transient hot wire
  thermal conductivity: 0.051 ± 0.0011 W/m/K
341.75 K, 117 kPa, Gas, transient hot wire
  thermal conductivity: 0.01428 ± 0.00089 W/m/K
341.75 K, 153 kPa, Gas, transient hot wire
  thermal conductivity: 0.01409 ± 0.00088 W/m/K
341.8 K, 117 kPa, Gas, transient hot wire
  thermal conductivity: 0.01432 ± 0.00089 W/m/K
341.81 K, 154 kPa, Gas, transient hot wire
  thermal conductivity: 0.01416 ± 0.00088 W/m/K
341.86 K, 61 kPa, Gas, transient hot wire
  thermal conductivity: 0.01468 ± 0.00091 W/m/K
341.91 K, 62 kPa, Gas, transient hot wire
  thermal conductivity: 0.01468 ± 0.00091 W/m/K
342.04 K, 153 kPa, Gas, transient hot wire
  thermal conductivity: 0.01411 ± 0.00088 W/m/K
342.05 K, 117 kPa, Gas, transient hot wire
  thermal conductivity: 0.01436 ± 0.00089 W/m/K
342.11 K, 116 kPa, Gas, transient hot wire
  thermal conductivity: 0.01434 ± 0.00089 W/m/K
342.11 K, 153 kPa, Gas, transient hot wire
  thermal conductivity: 0.0142 ± 0.00089 W/m/K
342.19 K, 61 kPa, Gas, transient hot wire
  thermal conductivity: 0.01474 ± 0.00092 W/m/K
342.23 K, 61 kPa, Gas, transient hot wire
  thermal conductivity: 0.01466 ± 0.00091 W/m/K
342.38 K, 153 kPa, Gas, transient hot wire
  thermal conductivity: 0.0142 ± 0.00091 W/m/K
342.39 K, 115 kPa, Gas, transient hot wire
  thermal conductivity: 0.01437 ± 0.00089 W/m/K
342.44 K, 116 kPa, Gas, transient hot wire
  thermal conductivity: 0.01444 ± 0.0009 W/m/K
342.44 K, 153 kPa, Gas, transient hot wire
  thermal conductivity: 0.01429 ± 0.00092 W/m/K
342.56 K, 60 kPa, Gas, transient hot wire
  thermal conductivity: 0.01477 ± 0.00092 W/m/K
342.59 K, 61 kPa, Gas, transient hot wire
  thermal conductivity: 0.01463 ± 0.00091 W/m/K
342.74 K, 153 kPa, Gas, transient hot wire
  thermal conductivity: 0.01422 ± 0.00093 W/m/K
342.76 K, 115 kPa, Gas, transient hot wire
  thermal conductivity: 0.0144 ± 0.0009 W/m/K
342.8 K, 153 kPa, Gas, transient hot wire
  thermal conductivity: 0.01428 ± 0.00093 W/m/K
342.81 K, 116 kPa, Gas, transient hot wire
  thermal conductivity: 0.01448 ± 0.0009 W/m/K
342.95 K, 60 kPa, Gas, transient hot wire
  thermal conductivity: 0.01472 ± 0.00091 W/m/K
342.98 K, 61 kPa, Gas, transient hot wire
  thermal conductivity: 0.01475 ± 0.00092 W/m/K
343.11 K, 153 kPa, Gas, transient hot wire
  thermal conductivity: 0.01428 ± 0.00089 W/m/K
343.15 K, 116 kPa, Gas, transient hot wire
  thermal conductivity: 0.01455 ± 0.0009 W/m/K
343.18 K, 153 kPa, Gas, transient hot wire
  thermal conductivity: 0.01436 ± 0.00089 W/m/K
343.2 K, 116 kPa, Gas, transient hot wire
  thermal conductivity: 0.0145 ± 0.0009 W/m/K
343.36 K, 60 kPa, Gas, transient hot wire
  thermal conductivity: 0.0147 ± 0.00092 W/m/K
343.39 K, 61 kPa, Gas, transient hot wire
  thermal conductivity: 0.01474 ± 0.00092 W/m/K
343.88 K, 192 kPa, Gas, hot wire
  thermal conductivity: 0.01563 ± 0.00078 W/m/K
343.89 K, 192 kPa, Gas, hot wire
  thermal conductivity: 0.01557 ± 0.00076 W/m/K
343.9 K, 170 kPa, Gas, hot wire
  thermal conductivity: 0.01524 ± 0.00072 W/m/K and 0.0152 ± 0.00072 W/m/K
343.91 K, 134 kPa, Gas, hot wire
  thermal conductivity: 0.01511 ± 0.00072 W/m/K and 0.01509 ± 0.00072 W/m/K
343.94 K, 82 kPa, Gas, hot wire
  thermal conductivity: 0.0148 ± 0.0007 W/m/K and 0.01481 ± 0.0007 W/m/K
343.99 K, 26 kPa, Gas, hot wire
  thermal conductivity: 0.01441 ± 0.00068 W/m/K
344 K, 26 kPa, Gas, hot wire
  thermal conductivity: 0.01439 ± 0.00068 W/m/K
344.02 K, 192 kPa, Gas, hot wire
  thermal conductivity: 0.01569 ± 0.00078 W/m/K
344.03 K, 192 kPa, Gas, hot wire
  thermal conductivity: 0.01571 ± 0.00078 W/m/K
344.04 K, 170 kPa, Gas, hot wire
  thermal conductivity: 0.01532 ± 0.00073 W/m/K
344.06 K, 134 kPa, Gas, hot wire
  thermal conductivity: 0.01505 ± 0.00071 W/m/K
344.07 K, 134 kPa, Gas, hot wire
  thermal conductivity: 0.01503 ± 0.00071 W/m/K
344.1 K, 82 kPa, Gas, hot wire
  thermal conductivity: 0.01476 ± 0.0007 W/m/K
344.1 K, 83 kPa, Gas, hot wire
  thermal conductivity: 0.01479 ± 0.0007 W/m/K
344.14 K, 26 kPa, Gas, hot wire
  thermal conductivity: 0.01446 ± 0.00068 W/m/K and 0.01445 ± 0.00068 W/m/K
344.17 K, 191 kPa, Gas, hot wire
  thermal conductivity: 0.01575 ± 0.00078 W/m/K and 0.01573 ± 0.00078 W/m/K
344.19 K, 169 kPa, Gas, hot wire
  thermal conductivity: 0.01545 ± 0.00074 W/m/K and 0.01542 ± 0.00074 W/m/K
344.21 K, 133 kPa, Gas, hot wire
  thermal conductivity: 0.01513 ± 0.00072 W/m/K
344.25 K, 83 kPa, Gas, hot wire
  thermal conductivity: 0.0148 ± 0.0007 W/m/K
344.26 K, 83 kPa, Gas, hot wire
  thermal conductivity: 0.01479 ± 0.0007 W/m/K
344.31 K, 26 kPa, Gas, hot wire
  thermal conductivity: 0.01448 ± 0.00068 W/m/K and 0.01449 ± 0.00068 W/m/K
344.31 K, 191 kPa, Gas, hot wire
  thermal conductivity: 0.01589 ± 0.00079 W/m/K
344.32 K, 191 kPa, Gas, hot wire
  thermal conductivity: 0.01586 ± 0.00079 W/m/K
344.35 K, 169 kPa, Gas, hot wire
  thermal conductivity: 0.01551 ± 0.00074 W/m/K and 0.01555 ± 0.00074 W/m/K
344.38 K, 132 kPa, Gas, hot wire
  thermal conductivity: 0.01516 ± 0.00072 W/m/K
344.38 K, 133 kPa, Gas, hot wire
  thermal conductivity: 0.01519 ± 0.00072 W/m/K
344.43 K, 83 kPa, Gas, hot wire
  thermal conductivity: 0.0148 ± 0.0007 W/m/K
344.44 K, 83 kPa, Gas, hot wire
  thermal conductivity: 0.01478 ± 0.0007 W/m/K
344.47 K, 191 kPa, Gas, hot wire
  thermal conductivity: 0.01601 ± 0.0008 W/m/K and 0.01602 ± 0.0008 W/m/K
344.49 K, 26 kPa, Gas, hot wire
  thermal conductivity: 0.01446 ± 0.00068 W/m/K and 0.01447 ± 0.00068 W/m/K
344.51 K, 169 kPa, Gas, hot wire
  thermal conductivity: 0.01563 ± 0.00075 W/m/K
